How the values were obtained:
HEp-2 = assay: MTT cytotoxicity, 72 h; assay type: cell-based, human
Experimental: (§1) The cytotoxicity assessment was performed against three human cancer cell lines in suspension (K562, HL-60 and MOLT-4) and four adhered (HEp-2, NCI-H292, HT-29 and MCF-7).
(§2) The cells were obtained from the Cell Bank of Rio de Janeiro and maintained in the Laboratory of Cell Culture of the Department of Antibiotics of the Federal University of Pernambuco. The lines K562 (myeloblastic leukaemia), HL-60 (promyelocytic leukemia) and MOLT-4 (lymphoblastic leukemia) were cultured in RPMI 1640 medium and the lines HEp-2 (larynx carcinoma), NCI-H292 (lung carcinoma), HT-29 (colon adenocarcinoma) and MCF-7 (breast adenocarcinoma) were cultured in DMEM medium, supplemented with 10% fetal bovine serum, 2 mM glutamine, 100 U/mL penicillin and 100 μg/mL streptomycin (Gibco™ Life Technologies), at 37 °C and 5% CO2.
(§3) The evaluation of the cytotoxicity of the compounds was performed by the method of 3-(4,5-dimethyl-2-thiazolyl)-2,5-diphenyl-2H-tetrazolium bromide (MTT) (Sigma Aldrich Co., St. Louis, MO, USA). To perform the assay the cells were seeded in 96-well plates at the following concentrations: HL-60 and K562 (0.3 × 10^6 cells/mL); MOLT-4 and PBMC (10^6 cells/mL); NCI-H292, HT-29, HEp-2 e MCF-7 (10^5 cells/mL). Briefly, the compounds previously dissolved in DMSO (dimethylsulfoxide, Vetec, São Paulo, Brazil), were diluted in medium and added to each well at the desired concentrations. For the calculation of the concentration that inhibits 50% of cell growth (IC50) the compounds were serially diluted to obtain the final concentrations between 0.19–25 μg/mL. Doxorubicin was used as the standard in the concentration range between (0.078–10 μg/mL). After 72 h of contact of the cells with the compounds, it was added to each well 25 μL of MTT solution (5 mg/mL). Plates were left for another 3 h in incubator at 37 °C and at the end of that period the supernatant was aspirated. To perform the reading, 100 μL of DMSO was added in each well for the dissolution of the formazan crystals. The amount of formazan was measured by reading the plate at 560 nm absorbance. The IC50 was calculated from the nonlinear regression in the Prisma 7.0 software (GraphPad, San Diego, CA, USA). Each sample was tested in triplicate in three independent experiments.

HL-60 = assay: MTT cytotoxicity, 72 h; assay type: cell-based, human; settings: MTT, 72 h of incubation
Experimental: as §1, §2, §3

HT-29 = assay: MTT cytotoxicity, 72 h; assay type: cell-based, human
Experimental: as §1, §2, §3

K562 = assay: MTT cytotoxicity, 72 h; assay type: cell-based, human
Experimental: as §1, §2, §3

MCF-7 = assay: MTT cytotoxicity, 72 h; assay type: cell-based, human
Experimental: as §1, §2, §3

MOLT-4 = assay: MTT cytotoxicity, 72 h; assay type: cell-based, human
Experimental: as §1, §2, §3

NCI-H292 = assay: MTT cytotoxicity, 72 h; assay type: cell-based, human
Experimental: as §1, §2, §3

[1] = tested on: Peripheral Blood Mononuclear Cells (PBMCs); assay: MTT cytotoxicity in normal cells, 72 h; assay type: cell-based, human; settings: 72 h of incubation
Experimental: In order to evaluate the cytotoxic potential in normal cells, all the derivatives were tested against Peripheral Blood Mononuclear Cells (PBMCs) and the most promising compounds were again compounds 3c and 4a, which offered more selectivity against the cancer cells.
Mononuclear cells were obtained from the peripheral blood of healthy volunteers by heparin tube collection and isolated by Ficoll-Histopaque gradient centrifugation. After centrifugation, the cells were harvested, washed and resuspended in RPMI 1640 medium supplemented with 20% fetal bovine serum, 2 mM glutamine, 100 U/mL penicillin and 100 μg/mL streptomycin (Gibco™ Life Technologies, Waltham, MA, USA). The phytohemagglutinin mitogen 2% was also added into the culture medium. After that, using the neubauer chamber, the cells were counted and plated in a 96-well plate at a concentration of 10^6 cells/mL and then were maintained for overnight under incubation at 37 °C and 5% CO2 [65].
as §3

CDK2/CyclinA = CDK2/CyclinA (Homo sapiens, UniProt P24941); assay: Kinase inhibition assay (ADP-Glo); assay type: biochemical; settings: 10 µM ATP
Experimental: HsCDK2/CyclinA (human, cyclin-dependent kinase-2, kindly provided by Dr. A. Echalier-Glazer, Leicester, UK) was assayed in buffer A with 0.8 µg/µL of histone H1 as substrate.

CDK5/p25 = biological target: T1, CDK5/p25 (Homo sapiens, UniProt Q00535); assay: Kinase inhibition assay (ADP-Glo); assay type: biochemical; settings: 10 µM ATP
T1 construct: made in house; host or cells: bacteria
Experimental: HsCDK5/p25 (human, recombinant, expressed in bacteria) was assayed in buffer A, with 0.8 µg/µL of histone H1 as substrate.

HASPIN = biological target: T2, HASPIN (Homo sapiens, UniProt Q8TF76); assay: Kinase inhibition assay (ADP-Glo); assay type: biochemical; settings: 10 µM ATP
T2 construct: kinase domain, amino acids 470 to 798; made in house; host or cells: bacteria
T2 sequence (Q8TF76 470-798): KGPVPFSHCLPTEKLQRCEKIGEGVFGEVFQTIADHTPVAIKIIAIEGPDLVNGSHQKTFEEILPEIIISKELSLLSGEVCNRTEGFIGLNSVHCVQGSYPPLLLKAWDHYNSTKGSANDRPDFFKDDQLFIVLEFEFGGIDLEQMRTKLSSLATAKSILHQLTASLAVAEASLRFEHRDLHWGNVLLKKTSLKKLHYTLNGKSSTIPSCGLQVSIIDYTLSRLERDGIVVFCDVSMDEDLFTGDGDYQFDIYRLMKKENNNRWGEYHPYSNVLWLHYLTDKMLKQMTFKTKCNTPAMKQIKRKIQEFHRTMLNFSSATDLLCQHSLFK
Experimental: HsHASPIN (human, kinase domain, amino acids 470 to 798, recombinant, expressed in bacteria) was assayed in buffer A with 0.007 µg/µL of Histone H3 (1-21) peptide ([…]) as substrate;

PIM1 = biological target: T3, PIM1 (Homo sapiens, UniProt P11309); assay: Kinase inhibition assay (ADP-Glo); assay type: biochemical; settings: 10 µM ATP
T3 construct: made in house; host or cells: bacteria
Experimental: HsPIM1 (human proto-oncogene, recombinant, expressed in bacteria) was assayed in buffer B with 0.8 µg/µL of histone H1 (Sigma #H5505) as substrate.

CLK1 = biological target: T4, CLK1 (Mus musculus, UniProt P22518); assay: Kinase inhibition assay (ADP-Glo); assay type: biochemical; settings: 10 µM ATP
T4 construct: made in house; host or cells: bacteria
Experimental: MmCLK1 (from Mus musculus, recombinant, expressed in bacteria) was assayed in buffer A with 0.027μg/µL of the following peptide: GRSRSRSRSRSR as substrate.

DYRK1A = biological target: T5, DYRK1A (Rattus norvegicus, UniProt Q63470); assay: Kinase inhibition assay (ADP-Glo); assay type: biochemical; settings: 10 µM ATP
T5 construct: amino acids 1 to 499 including the kinase domain; made in house; host or cells: bacteria
Experimental: RnDYRK1A (Rattus norvegicus, amino acids 1 to 499 including the kinase domain, recombinant, expressed in bacteria, DNA vector kindly provided by Dr. W. Becker, Aachen, Germany) was assayed in buffer A with 0.033 μg/µL of the following peptide: KKISGRLSPIMTEQ as substrate.

CK1δ/ε = assay: Kinase inhibition assay (ADP-Glo); assay type: biochemical, Sus scrofa domesticus; settings: 10 µM ATP
Experimental: SscCK1δ/ε (Sus scrofa domesticus, casein kinase 1δ/ε, affinity purified from porcine brain) was assayed in buffer A, with 0.022 μg/μL of the following peptide: RRKHAAIGSpAYSITA (“Sp” stands for phosphorylated serine) as CK1-specific substrate.

GSK3 α/β = assay: Kinase inhibition assay (ADP-Glo); assay type: biochemical, Sus scrofa domesticus; settings: 10 µM ATP
Experimental: SscGSK-3α/β (Sus scrofa domesticus, glycogen synthase kinase-3, affinity purified from porcine brain) was assayed in buffer A with 0.010 µg/µL of GS-1 peptide, a GSK-3-selective substrate ([…]pEDEEE, “Sp” stands for phosphorylated serine).

AURKB = biological target: T6, AURKB (Homo sapiens, UniProt Q96GD4); assay: Kinase inhibition assay (ADP-Glo); assay type: biochemical; settings: 10 µM ATP
T6 construct: purchased SignalChem A31-10G; host or cells: Sf9 insect cells (baculovirus)

CDK9/CyclinT = CDK9/CyclinT (Homo sapiens, UniProt P50750); assay: Kinase inhibition assay (ADP-Glo)
Experimental: The protein kinases studied were: CDK2/CyclinA, CDK5/p25, CDK9/CyclinT (cyclin-dependent kinases), HASPIN (haploid germ cell-specific nuclear protein kinase), PIM1 (PIM family kinase 1), CLK1 (cdc2-like kinase 1), DYRK1A (dual-specificity tyrosine phosphorylation regulated kinase), CK1δ/ε (casein kinase 1 isoforms), GSK3α/β (glycogen synthase kinase 3) and AURKB (aurora kinase B). Initially, all compounds were first tested at 10 μM. […] Compounds displaying more than 50% inhibition at 10 μM were next tested over a wide range of concentrations (usually 0.01–10 μM), and IC50 values were determined from the dose-response curves (Sigma-Plot).
Kinase activities were assayed in appropriate kinase buffer, with either protein or peptide as substrate in the presence of 10 µM ATP in a final volume of 6 µL using the ADP-Glo^TM assay kit (Promega, Madison, WI, USA, as described in Zegzouti et al. [66]). Controls were performed with appropriate dilutions of dimethylsulfoxide (solvent of the tested compounds).
The buffers used for kinase assays are the following: (A) 10 mM MgCl2, 1 mM EGTA, 1 mM DTT, 25 mM Tris-HCl pH 7.5, 50 µg/mL heparin; (B) 25 mM MOPS, pH 7.2, 12.5 mM -glycerolphosphate, 25 mM MgCl2, 5 mM EGTA, 2 mM EDTA, 0.25 mM DTT.

[2] = Homo sapiens, HEp-2, 72 h of incubation
[3] = Homo sapiens, HT-29, 72 h of incubation
[4] = Homo sapiens, K562, 72 h of incubation
[5] = Homo sapiens, MCF7, 72 h of incubation
[6] = Homo sapiens, MOLT-4, 72 h of incubation
[7] = Homo sapiens, NCI-H292, 72 h of incubation

T3 sequence (P11309 whole entry): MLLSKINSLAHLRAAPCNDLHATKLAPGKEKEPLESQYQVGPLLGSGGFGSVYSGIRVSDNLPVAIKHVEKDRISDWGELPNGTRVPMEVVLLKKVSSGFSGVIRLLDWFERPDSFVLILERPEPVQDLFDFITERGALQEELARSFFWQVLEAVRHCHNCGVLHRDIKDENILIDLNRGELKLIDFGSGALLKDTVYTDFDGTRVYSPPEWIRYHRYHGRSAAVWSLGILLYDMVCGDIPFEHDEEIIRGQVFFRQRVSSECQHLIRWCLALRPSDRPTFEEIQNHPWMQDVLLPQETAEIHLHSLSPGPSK
T1 sequence (Q00535 whole entry): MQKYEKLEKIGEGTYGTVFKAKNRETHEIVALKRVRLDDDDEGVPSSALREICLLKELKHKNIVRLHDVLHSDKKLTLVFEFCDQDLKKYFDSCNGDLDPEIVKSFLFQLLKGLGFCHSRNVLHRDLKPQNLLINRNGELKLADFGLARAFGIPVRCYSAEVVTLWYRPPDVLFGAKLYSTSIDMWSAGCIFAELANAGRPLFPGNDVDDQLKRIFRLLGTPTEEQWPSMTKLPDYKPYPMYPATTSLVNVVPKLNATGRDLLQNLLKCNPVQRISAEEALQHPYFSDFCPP
T1 sequence (Q15078 99-307 partner limits assumed): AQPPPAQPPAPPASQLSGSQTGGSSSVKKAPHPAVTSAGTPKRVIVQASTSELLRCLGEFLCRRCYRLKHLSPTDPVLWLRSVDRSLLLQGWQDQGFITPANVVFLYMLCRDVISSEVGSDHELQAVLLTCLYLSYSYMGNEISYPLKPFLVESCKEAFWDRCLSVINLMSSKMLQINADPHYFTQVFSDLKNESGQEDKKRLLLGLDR
Chain of CDK9/CyclinT (P50750 whole entry): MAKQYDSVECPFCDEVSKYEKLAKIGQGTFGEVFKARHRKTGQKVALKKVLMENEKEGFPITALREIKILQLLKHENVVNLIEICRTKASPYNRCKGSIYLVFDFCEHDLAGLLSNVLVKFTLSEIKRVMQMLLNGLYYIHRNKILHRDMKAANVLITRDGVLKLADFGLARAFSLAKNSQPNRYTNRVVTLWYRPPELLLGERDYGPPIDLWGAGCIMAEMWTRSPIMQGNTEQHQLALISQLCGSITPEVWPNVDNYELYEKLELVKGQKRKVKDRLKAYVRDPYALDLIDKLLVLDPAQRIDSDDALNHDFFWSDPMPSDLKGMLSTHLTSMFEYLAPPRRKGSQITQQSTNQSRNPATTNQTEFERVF
Chain of CDK9/CyclinT (O60563 whole entry partner): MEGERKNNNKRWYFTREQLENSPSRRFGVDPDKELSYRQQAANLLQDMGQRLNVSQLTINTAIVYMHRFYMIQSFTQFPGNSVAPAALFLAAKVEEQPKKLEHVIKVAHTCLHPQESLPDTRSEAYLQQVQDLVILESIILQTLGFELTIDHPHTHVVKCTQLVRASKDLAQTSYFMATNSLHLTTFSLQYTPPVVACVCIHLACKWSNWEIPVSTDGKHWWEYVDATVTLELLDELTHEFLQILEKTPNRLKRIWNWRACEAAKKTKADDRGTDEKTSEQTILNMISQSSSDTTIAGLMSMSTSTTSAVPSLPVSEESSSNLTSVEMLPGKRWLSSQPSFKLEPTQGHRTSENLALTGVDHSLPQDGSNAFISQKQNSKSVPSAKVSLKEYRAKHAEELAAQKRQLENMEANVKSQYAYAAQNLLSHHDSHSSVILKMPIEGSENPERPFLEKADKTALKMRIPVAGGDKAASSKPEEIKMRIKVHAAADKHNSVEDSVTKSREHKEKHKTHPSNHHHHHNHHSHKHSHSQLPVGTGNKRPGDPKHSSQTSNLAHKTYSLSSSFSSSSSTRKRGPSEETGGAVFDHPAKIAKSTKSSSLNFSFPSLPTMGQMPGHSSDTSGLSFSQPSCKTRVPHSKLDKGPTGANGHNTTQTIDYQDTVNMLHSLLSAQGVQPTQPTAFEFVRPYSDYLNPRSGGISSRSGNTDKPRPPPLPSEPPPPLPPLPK
T6 sequence (Q96GD4 whole entry): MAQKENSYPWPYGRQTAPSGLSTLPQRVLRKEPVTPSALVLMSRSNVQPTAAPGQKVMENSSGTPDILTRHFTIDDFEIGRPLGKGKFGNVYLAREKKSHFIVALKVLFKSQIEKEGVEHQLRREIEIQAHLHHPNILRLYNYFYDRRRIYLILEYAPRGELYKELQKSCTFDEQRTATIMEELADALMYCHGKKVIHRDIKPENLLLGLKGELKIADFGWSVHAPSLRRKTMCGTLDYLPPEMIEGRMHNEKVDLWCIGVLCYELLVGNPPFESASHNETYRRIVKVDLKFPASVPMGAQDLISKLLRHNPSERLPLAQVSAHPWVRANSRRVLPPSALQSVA
T4 sequence (P22518 whole entry): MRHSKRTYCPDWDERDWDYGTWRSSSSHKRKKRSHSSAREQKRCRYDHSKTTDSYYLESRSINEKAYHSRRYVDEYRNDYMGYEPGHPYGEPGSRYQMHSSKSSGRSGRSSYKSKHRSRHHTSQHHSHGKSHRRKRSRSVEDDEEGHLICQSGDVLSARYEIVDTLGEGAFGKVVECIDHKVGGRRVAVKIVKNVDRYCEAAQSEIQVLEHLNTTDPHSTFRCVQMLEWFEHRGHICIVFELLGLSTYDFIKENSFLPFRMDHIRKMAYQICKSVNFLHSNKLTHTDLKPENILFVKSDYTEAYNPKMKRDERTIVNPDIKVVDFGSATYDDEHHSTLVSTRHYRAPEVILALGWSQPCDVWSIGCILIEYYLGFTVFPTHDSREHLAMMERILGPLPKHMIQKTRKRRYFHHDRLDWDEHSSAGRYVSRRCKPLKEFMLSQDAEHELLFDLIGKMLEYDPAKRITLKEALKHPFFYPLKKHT

| Molecule | IC50 (HEp-2; [2]) | IC50 (HL-60; Homo sapiens, HL-60) | IC50 (HT-29; [3]) | IC50 (K562; [4]) | IC50 (MCF-7; [5]) | IC50 (MOLT-4; [6]) | IC50 (NCI-H292; [7]) | IC50 ([1]; Homo sapiens, PBMC) | melting point | IC50 (CDK5/p25) | IC50 (HASPIN) | IC50 (PIM1) | IC50 (GSK3 α/β) | IC50 (CDK9/CyclinT) | other results |
| --- | --- | --- | --- | --- | --- | --- | --- | --- | --- | --- | --- | --- | --- | --- | --- |
| 2,6-Pyridinedicarboxaldehyde Semicarbazone [Compound 3j] | – | – | – | – | – | – | – | – | – | – | – | – | – | – | IC50 (HEp-2; 72 h of incubation): > 100 µM; IC50 (HL-60): > 100 µM; IC50 (HT-29; 72 h of incubation): > 100 µM; IC50 (K562; 72 h of incubation): > 100 µM; IC50 (MCF-7; 72 h of incubation): > 100 µM; IC50 (MOLT-4; 72 h of incubation): > 100 µM; IC50 (NCI-H292; 72 h of incubation): > 100 µM; IC50 [1]: > 100 µM |
| COc1ccc(C=NNC(N)=O)cc1 [Compound 3a, 4-Methoxybenzaldehyde Semicarbazone] | > 100 µM | > 100 µM | > 100 µM | > 100 µM | > 100 µM | > 100 µM | > 100 µM | > 100 µM | 210 to 212 °C | – | – | – | – | – | – |
| COc1cc(C=NNC(N)=O)ccc1O [Compound 3b, 4-Hydroxy-3-methoxybenzaldehyde Semicarbazone] | > 100 µM | > 100 µM | > 100 µM | > 100 µM | > 100 µM | > 100 µM | > 100 µM | > 100 µM | 237 to 239 °C | – | – | – | – | – | – |
| NC(=O)NN=Cc1ccc(Br)cc1 [Compound 3d, 4-Bromobenzaldehyde Semicarbazone] | 23.1 ± 0.8 µM | 16.9 ± 1.1 µM | > 100 µM | 25.2 ± 2.43 µM | 33.5 ± 0.75 µM | 37.2 ± 0.84 µM | > 100 µM | 46.3 ± 0.97 µM | 237 to 239 °C | > 10 µM | > 10 µM | > 10 µM | > 10 µM | > 10 µM | IC50 (CDK2/CyclinA): > 10 µM; IC50 (CLK1): > 10 µM; IC50 (DYRK1A): > 10 µM; IC50 (CK1δ/ε): > 10 µM; IC50 (AURKB): > 10 µM |
| NC(=O)NN=Cc1ccc(Cl)cc1 [Compound 3e, 4-Chlorobenzaldehyde Semicarbazone] | 22.3 ± 0.4 µM | > 100 µM | > 100 µM | 58.7 ± 0.97 µM | 33.9 ± 0.8 µM | > 100 µM | > 100 µM | > 100 µM | 235 to 236 °C | > 10 µM | > 10 µM | > 10 µM | > 10 µM | > 10 µM | IC50 (CDK2/CyclinA): > 10 µM; IC50 (CLK1): > 10 µM; IC50 (DYRK1A): > 10 µM; IC50 (CK1δ/ε): > 10 µM; IC50 (AURKB): > 10 µM |
| NC(=O)NN=Cc1ccncc1 [Compound 3i, 4-Pyridinecarboxaldehyde Semicarbazone] | > 100 µM | > 100 µM | > 100 µM | > 100 µM | > 100 µM | > 100 µM | > 100 µM | > 100 µM | 225 to 226 °C | – | – | – | – | – | – |
| NC(=O)NN=Cc1cccs1 [Compound 3k, 2-Thiophenecarboxaldehyde Semicarbazone] | > 100 µM | > 100 µM | > 100 µM | > 100 µM | > 100 µM | > 100 µM | > 100 µM | > 100 µM | 227 to 230 °C | – | – | – | – | – | – |
| NC(=O)N/N=C/c1ccc([N+](=O)[O-])o1 [Compound 3m, 5-Nitro-2-furfuraldehyde Semicarbazone] | – | 24.33 ± 0.16 µM | 28.4 ± 8.56 µM | – | 8.56 ± 0.01 µM | – | 31.9 ± 0.07 µM | > 100 µM | – | > 10 µM | > 10 µM | > 10 µM | > 10 µM | > 10 µM | – |

Source: article PMC6958387, “Biological Evaluation of Arylsemicarbazone Derivatives as Potential Anticancer Agents” (Pharmaceuticals, 2019)
